Results on 2 molecules are retold here after patent US3941795A, “α-ARYL-4-SUBSTITUTED PIPERIDINOALKANOL DERIVATIVES” (Richardson-Merrell Inc., priority 1974, dated 1976).

The assay has as its system wheals induced by intradermal injections on 1γ of histamine. Kind of assay: reduction by 50% of wheals induced by intradermal injections of histamine into guinea pigs (antihistamine). Type of assay: in vivo. The conditions noted are these: Cavia porcellus, po, 1 h, orally administered one hour prior to the histamine injection, 1γ of histamine intradermal, read-out: ED50 (amount required to reduce by 50% wheals induced by intradermal injections of histamine). From the text: To illustrate the utility of the compounds of this invention the following tabulation indicates the amount of certain representative compounds of this invention required to reduce by 50% wheals induced by intradermal injections on 1γ of histamine into guinea pigs. Each compound was orally administered one hour prior to the histamine injection.

Usually ED50 stands for the dose that gives a 50% effect, or the effect in half of the subjects. Consider `CC(C)(C)c1ccc(C(O)CCCN2CCC(C(O)(c3ccccc3)C3CCCCC3)CC2)cc1.Cl` (stereo not drawn) [4-(α-cyclohexyl-α-hydroxybenzyl)-α-(p-tert-butylphenyl)-1-piperidinebutanol hydrochloride], for which the ED50 was 12 mg/kg.

On to `COc1ccccc1C(=C1CCN(CCCC(O)c2ccc(C(C)(C)C)cc2)CC1)c1ccccc1` (stereo not drawn) [4-[4-[α-(o-Anisyl)benzylidene]-α-(p-tert-butylphenyl)-1-piperidinebutanol]], for which the ED50 was 4.4 mg/kg.
